According to US20020091144A1, “Treatment of apoptotic cell death” (Johns Hopkins University, priority 2000, published 2002):

Assays:
caspase-3 = experiment: Activated caspase-3 immunofluorescent staining; type: cell-based, rat
Experimental: (§1) Neonatal rat cardiac myocytes in primary culture were randomly assigned to one of four experimental groups: 1) control group, 2) incubation with 200 μM H2O2, 3) 100 μM diazoxide, applied together with 200 μM H2O2, 4) 100 μM diazoxide and 500 μM 5-HD, applied together with 200 μM H2O2. […] Staining was conducted as follows. TUNEL staining was performed according to the manufacturer's protocol (Roche Molecular Biochemicals). Fluorescein labels incorporated in nucleotide polymers were detected by laser scanning confocal microscopy at excitation wavelength of 488 rim (argon laser). […] Necrotic cells had been excluded from these specimens since they became non-adherent and were removed when the medium was decanted and the cell layers were washed in PBS. […] This effect was blocked by the mitoKATP channel antagonist 5-HD (FIG. 1D). […] That immunofluorescence was conducted as follows: cells were plated on glass coverslips, treated with drugs as indicated, fixed in ice-cold 1:1 mixture of methanol/acetone, blocked with 10% normal goat serum and 0.075% saponin in PBS, and incubated with primary antibody dissolved in blocking solution at a dilution of 1:100. […] These coverslips were mounted with antifading fluorescence mounting medium and were examined by a laser scanning confocal microscope (Zeiss, LSM 410), using 40x water-immersion lens and 2x optical zoom. […]

caspase-7 = experiment: Activated caspase-7 immunofluorescent staining; type: cell-based, rat
Experimental: as §1

cytochrome c = experiment: Cytochrome c immunofluorescence (translocation to cytosol); type: cell-based, rat
Experimental: as §1

[1] = tested on: poly(ADP-ribose) polymerase (PARP); experiment: Cleaved PARP immunofluorescent staining; type: cell-based, rat
Experimental: as §1

[2] = tested on: Neonatal rat cardiac myocytes; experiment: Mitochondrial membrane potential, JC-1 confocal image analysis, cardiac myocytes; type: cell-based
Experimental: Redistribution of cytochrome c has been linked to the loss of mitochondrial membrane potential (ΨΔ) and the opening of the mitochondrial permeability transition pore (23). We assessed ΨΔ in H2O2-stimulated myocytes using a fluorescent probe, JC-1 (24). […] Cells exposed to 200 μM H2O2 for 2 h lose punctate red staining (FIG. 2B), in favor of a diffuse green cytosolic signal indicative of the loss of ΨΔ. […] The protective effect of diazoxide is blocked by 500 μM 5-HD (FIG. 2D). These observations were rendered quantitative by automated image analysis (24). FIG. 2E summarizes the red fluorescence, an indicator of ΨΔ.
(§2) Cytoprotective effects of diazoxide in neurons also was evaluated. […] Staining was conducted as follows: loss of mitochondrial membrane potential (ΨΔ) was assessed using either a laser scanning confocal microscope or flow cytometry analysis of cells stained with 5,5′,6,6′-tetrachloro-1,1′,3,3′-tetraethylbenzimidazolecarbocyanide iodine (JC-1, Molecular Probes). Cells were incubated with 2 μg/mL JC-1 for 10 min in 37° C. After washing the dye, cells on dishes were scanned with a confocal microscope at 10x magnification. The dye was excited by the 488 nm line of an argon laser, and the 543 nm line of a helium/neon laser. The red emission of the dye is due to a potential-dependent aggregation in the mitochondria, reflecting ΨΔ. Green fluorescence reflects the monomeric form of JC-1, occuring in the cytosol after mitochondrial membrane depolarization. The fluorescence intensity of the field was measured using integrated image analysis software (Simple32; Compix, Inc.), which was programmed to automatically detect all areas of red or green fluorescence above background. The data are plotted as mean values of arbitrary units of fluorescence intensity. For flow cytometry analysis, cells were harvested by trypsinization after loading of the dye, and analyzed by FACScan (10,000 cells/sample). The excitation wavelength was 488 nm, and the emission fluorescence for JC-1 was monitored at 530 (FL-1) and 582 nm (FL-2). The flow cytometry data are analyzed using Cell Quest (Becton Dickinson, Immunocytometry Systems).

[3] = tested on: rat cerebellar granule neurons; experiment: Mitochondrial membrane potential, JC-1 staining, cerebellar granule neurons; type: cell-based
Experimental: as §2, with “The red emission of the dye is due to a potential-dependent aggregation in the mitochondria, reflecting ΨΔ.” left out, “The flow cytometry data are analyzed using Cell Quest (Becton Dickinson, Immunocytometry Systems).” left out

PARP holoenzyme = experiment: Immunoblot of PARP holoenzyme; type: cell-based, rat
Experimental: (U) Immunoblot of PARP in neonatal rat cardiac myocytes. Cell lysates from each experimental group were subjected to immunoblot analysis (30 μg protein/lane) with monoclonal antibody against 117-kDa PARP holoenzyme. Cells were treated for either 8 h or 16 hours. To confirm these findings using complementary methods, we examined PARP protein levels as a biochemical indicator of the activation of downstream caspases in each group.

[4] = tested on: Neonatal rat cardiac myocytes; experiment: Mitochondrial membrane potential, JC-1 flow cytometry, cardiac myocytes; type: cell-based
Experimental: The effects of mitoKATP channel activation by flow cytometry (FIGS. 2F-J) were further quantified. Incubation with 200 μM H2O2 for 2 h decreased the red fluorescence and shifted the distribution curve leftward. […] To confirm the central role of mitoKATP channels, we examined another mitoKATP channel opener, pinacidil.
as §2

[5] = tested on: Neonatal rat cardiac myocytes; experiment: TUNEL staining of H2O2-induced apoptosis; type: cell-based
Experimental: Neonatal rat cardiac myocytes in primary culture were randomly assigned to one of four experimental groups: 1) control group, 2) incubation with 200 μM H2O2, 3) 100 μM diazoxide, applied together with 200 μM H2O2, 4) 100 μM diazoxide and 500 μM 5-HD, applied together with 200 μM H2O2. […] Staining was conducted as follows. TUNEL staining was performed according to the manufacturer's protocol (Roche Molecular Biochemicals). Fluorescein labels incorporated in nucleotide polymers were detected by laser scanning confocal microscopy at excitation wavelength of 488 rim (argon laser). […] Necrotic cells had been excluded from these specimens since they became non-adherent and were removed when the medium was decanted and the cell layers were washed in PBS.

mitoKATP channel = details: intact heart cells; read-out: value for mitoKATP channel activation; cited from earlier work
[6] = 500 μM 5-HD + 100 μM diazoxide + 200 μM H2O2
[7] = 100 μM diazoxide with 200 μM H2O2

CCCCCC(O)CCCC(=O)O (stereo not shown) [5-HD, 5-hydroxydecanoate]
effect on diazoxide inhibition of caspase-3 activation (caspase-3; [6]): negated the effect of diazoxide
effect on diazoxide inhibition of caspase-7 activation (caspase-7; [6]): abolished the anti-apoptosic effect of diazoxide
effect on diazoxide inhibition of cytochrome c translocation (cytochrome c; [6]): abrogated the effect of diazoxide
effect on diazoxide inhibition of PARP cleavage [1, 6]: prevented the diazoxide effect
effect on diazoxide prevention of loss of ΨΔ, automated image analysis ([2]; 500 μM 5-HD + 100 μM diazoxide + 200 μM H2O2 for 2 h): antagonized the salutary effect of diazoxide
effect on diazoxide protection of ΨΔ ([2]; 500 μM 5-HD + 100 μM diazoxide + 200 μM H2O2 for 2 h, confocal images): blocked
effect on diazoxide protection of ΨΔ in neurons ([3]; 500 μM 5-HD + 100 μM diazoxide + 100 μM H2O2 for 1 h): blocked
effect on diazoxide protection of PARP holoenzyme (PARP holoenzyme; 5-HD + diazoxide + H2O2, 8 h or 16 hours): abolished the protective effect of diazoxide
effect of 5-HD alone on ΨΔ ([4]; 5-HD 500 μM + H2O2, absence of diazoxide): no effect on ΨΔ
effect on diazoxide protection of ΨΔ, flow cytometry ([4]; 5-HD 500 μM + diazoxide 100 μM + 200 μM H2O2): abolished the effect of diazoxide
effect on diazoxide protection against TUNEL positivity ([5]; 500 μM 5-HD + 100 μM diazoxide + 200 μM H2O2, 16 h): blocked

CC1=NS(=O)(=O)c2cc(Cl)ccc2N1 [diazoxide]
H2O2-induced activation of caspase-3 (caspase-3; [7]): inhibited the H2O2-induced activation of caspase-3
EC50 (mitoKATP channel): 27 µM
H2O2-induced activation of caspase-7 (caspase-7; [7]): inhibited H2O2-induced activation of caspase-7
H2O2-induced cytochrome c translocation to the cytoplasm (cytochrome c; 100 μM diazoxide with 200 μM H2O2, 16 hours): inhibited the translocation of cytochrome c
H2O2-induced PARP cleavage [1, 7]: inhibited the H2O2-induced PARP cleavage
H2O2-induced loss of mitochondrial membrane potential (ΨΔ), JC-1 red staining ([2]; 100 μM diazoxide, 200 μM H2O2 for 2 h, confocal images): protects against H2O2-induced loss of mitochondrial integrity
EC50 ([2]; Rattus norvegicus, 200 μM H2O2 for 2 h, red fluorescence, automated image analysis, read-out: EC50 for prevention of loss of ΨΔ): 40 µM
loss of ΨΔ, red fluorescence by automated image analysis ([2]; diazoxide 20-200 μM, 200 μM H2O2 for 2 h): prevented loss of ΨΔ in a dose-dependent manner
H2O2-induced loss of ΨΔ in neurons, JC-1 red staining ([3]; 100 μM diazoxide, 100 μM H2O2 for 1 h): protects against H2O2-induced loss of mitochondrial integrity
loss of 117-kDa PARP holoenzyme band (PARP holoenzyme; diazoxide with H2O2, 8 h or 16 hours): attenuates the loss of PARP holoenzyme
H2O2-induced dissipation of ΨΔ, red fluorescence distribution ([4]; diazoxide 20, 50, 100 μM, 200 μM H2O2 for 2 h): prevented the H2O2-induced dissipation of ΨΔ in a dose-dependent manner
H2O2-induced TUNEL positive nuclei ([5]; 100 μM diazoxide with 200 μM H2O2, 16 h): decreased the frequency of H2O2-induced TUNEL positive nuclei

COc1ccc(Cl)cc1C(=O)NCCc1ccc(S(=O)(=O)NC(=O)NC2CCCCC2)cc1 [glibenclamide]
effect of KATP blocker on diazoxide protection of ΨΔ ([4]; glibenclamide 10 μM with diazoxide and H2O2): reversed the salutary effect of diazoxide

CC(N/C(=N\C#N)Nc1ccncc1)C(C)(C)C (stereo not shown) [pinacidil]
restoring the loss of ΨΔ induced by H2O2 ([4]; 100 μM pinacidil, 200 μM H2O2): equi-effective to diazoxide
